24 molecules from patent publication US10138207B2, “Benzomorphan analogs and the use thereof” (priority 2012, dated 2018) can be followed below.

Bounds are passed on as bounds.

One test deals with κ opioid receptor (Homo sapiens, UniProt P41145). Description: biochemical. Further details: expressed in transfected cells; host or cells: HEK 293 (in-house membrane prep). The format is binding. The note with it: HEK-293 or CHO cells.
Test [1] addresses T1, μ-opioid receptor (Homo sapiens, UniProt P35372). Description: μ-opioid receptor [35S]GTPγS functional assay, HEK-293 or CHO cells. The note with it: for Emax: read-out: GTPγS μ Emax.
The target in test [2] is T1, μ-opioid receptor. Description: μ-opioid receptor [35S]GTPγS functional assay, U-2 OS cells. The note with it: U-2 OS cells; for EC50: read-out: GTPγS μ EC50; for Emax: relative to DAMGO, read-out: GTPγS μ Emax. Further details: expressed in transfected cells; host or cells: U-2 OS. It is filed as biochemical.

Sequence of κ opioid receptor (P41145 whole entry): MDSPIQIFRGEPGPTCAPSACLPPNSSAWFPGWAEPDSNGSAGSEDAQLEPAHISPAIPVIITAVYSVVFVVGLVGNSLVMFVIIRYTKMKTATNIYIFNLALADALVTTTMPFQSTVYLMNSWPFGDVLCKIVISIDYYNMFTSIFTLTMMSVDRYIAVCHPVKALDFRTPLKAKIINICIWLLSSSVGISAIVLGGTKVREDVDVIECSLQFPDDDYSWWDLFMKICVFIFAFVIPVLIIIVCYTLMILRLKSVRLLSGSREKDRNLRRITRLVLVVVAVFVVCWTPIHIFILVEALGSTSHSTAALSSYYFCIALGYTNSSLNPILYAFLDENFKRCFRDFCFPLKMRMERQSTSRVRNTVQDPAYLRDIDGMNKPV
T1 sequence (P35372 whole entry, species assumed): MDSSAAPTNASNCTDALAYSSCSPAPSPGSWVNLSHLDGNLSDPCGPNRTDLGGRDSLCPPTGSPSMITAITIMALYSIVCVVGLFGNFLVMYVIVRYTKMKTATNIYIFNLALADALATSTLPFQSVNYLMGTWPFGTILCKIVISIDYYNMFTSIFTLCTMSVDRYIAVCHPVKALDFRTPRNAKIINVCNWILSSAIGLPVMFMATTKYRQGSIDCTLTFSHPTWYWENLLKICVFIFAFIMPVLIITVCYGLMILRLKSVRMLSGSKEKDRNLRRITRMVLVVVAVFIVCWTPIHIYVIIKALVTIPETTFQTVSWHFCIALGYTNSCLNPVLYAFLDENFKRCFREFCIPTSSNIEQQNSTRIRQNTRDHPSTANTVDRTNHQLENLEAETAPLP

On κ opioid receptor (bound in μM), `CN1CC[C@]2(C)c3cc(O)ccc3CC1C2N(C)C(=O)Nc1ccc(C(=O)O)cc1` (stereo in doubt) [Compound 45, 4-(3-((2R,6R,11S)-8-hydroxy-3,6-dimethyl-1,2,3,4,5,6-hexahydro-2,6-methanobenzo[d]azocin-11-yl)-3-methylureido)benzoic acid] yielded a Ki above 20 µM. Moreover, on μ-opioid receptor [1], a half-maximal effect (EC50) was put at 3.85 ± 0.839 µM and the Emax came to 17 ± 3.06%.
Take `CN1CC[C@]2(C)c3cc(O)ccc3CC1C2N(C)C(=O)Nc1ccc(C(=O)O)cc1` (stereo in doubt) [Compound 46, 4-(3-((2R,6R,11R)-8-hydroxy-3,6-dimethyl-1,2,3,4,5,6-hexahydro-2,6-methanobenzo[d]azocin-11-yl)-3-methylureido)benzoic acid]: the Ki on κ opioid receptor (bound in μM) is above 20 µM. Further, at μ-opioid receptor [1], the EC50 amounted to 13.4 ± 2.99 µM and the Emax was 36.7 ± 3.18%.
In the same order, the values of `CN1CC[C@]2(C)c3cc(O)ccc3CC1C2N(C)C(=O)c1ccccc1C(=O)O` (stereo in doubt) [Compound 49, 2-(((2R,6R,11S)-8-hydroxy-3,6-dimethyl-1,2,3,4,5,6-hexahydro-2,6-methanobenzo[d]azocin-11-yl)(methyl)carbamoyl)benzoic acid] are above 20 µM, above 20 µM and 31.3 ± 5.36%.
On κ opioid receptor, `CN1CC[C@]2(C)c3cc(O)ccc3CC1C2Nc1ccc(CCS(N)(=O)=O)cc1` (stereo in doubt) [Compound 58, 2-(4-(((2R,6R,11S)-8-hydroxy-3,6-dimethyl-1,2,3,4,5,6-hexahydro-2,6-methanobenzo[d]azocin-11-yl)amino)phenyl)ethanesulfonamide] came in with a Ki of 0.336 ± 0.0875 µM. Further, on μ-opioid receptor [1], a half-maximal response (EC50) required 0.751 ± 0.0433 µM and the Emax is 110 ± 7.55%.
In the same order, the values of `CN1CC[C@]2(C)c3cc(O)ccc3CC1C2N(C)C(=O)NCCC(=O)O` (stereo in doubt) [Compound 68, 3-(3-((2R,6R,11S)-8-hydroxy-3,6-dimethyl-1,2,3,4,5,6-hexahydro-2,6-methanobenzo[d]azocin-11-yl)-3-methylureido)propanoic acid] are 0.799 ± 0.0982 µM, 0.55 ± 0.0316 µM and 98 ± 1.73%.
In the same order, the values of `CN1CC[C@]2(C)c3cc(O)ccc3C[C@@H]1[C@H]2COc1cncc(C(=O)O)c1` [Compound 33, 5-(((2R,6S,11S)-8-hydroxy-3,6-dimethyl-1,2,3,4,5,6-hexahydro-2,6-methanobenzo[d]azocin-11-yl)methoxy)nicotinic acid] are 2.84 ± 0.342 µM, 2.45 ± 0.167 µM and 49 ± 3.67%.
In the same order, the values of `CN1CC[C@]2(C)c3cc(O)ccc3CC1[C@@H]2COc1cncc(C(=O)O)c1` [Compound 34, 5-(((6S,11R)-8-hydroxy-3,6-dimethyl-1,2,3,4,5,6-hexahydro-2,6-methanobenzo[d]azocin-11-yl)methoxy)nicotinic acid] are 5.99 ± 0.604 µM, 3.64 ± 0.373 µM and 16 ± 3.46%.
In the case of `CN1CC[C@]2(C)c3cc(O)ccc3CC1[C@@H]2CC(=O)Nc1ccccc1C(=O)O` [Compound 35, 2-(2-((6S,11R)-8-hydroxy-3,6-dimethyl-1,2,3,4,5,6-hexahydro-2,6-methanobenzo[d]azocin-11-yl)acetamido)benzoic acid], the Ki on κ opioid receptor (bound in μM) is above 20 µM. In addition, at μ-opioid receptor [1], the midpoint of the response, the EC50, lay at 2.57 ± 0.783 µM and the Emax was found to be 23 ± 0.58%.
`COc1ccc2c(c1)[C@@]1(C)CCN(C)C(C2)[C@@H]1c1cccc(C#N)c1` [Compound 36, 3-((6S,11R)-8-methoxy-3,6-dimethyl-1,2,3,4,5,6-hexahydro-2,6-methanobenzo[d]azocin-11-yl)benzonitrile] gave an inhibition constant (Ki) on κ opioid receptor of 4.19 ± 1.05 µM. At μ-opioid receptor [1], this molecule registered an EC50 above 20 µM.
`COc1ccc2c(c1)[C@@]1(C)CCN(C)C(C2)[C@]1(O)c1cccc(C#N)c1` [Compound 37, 3-((6R,11S)-11-hydroxy-8-methoxy-3,6-dimethyl-1,2,3,4,5,6-hexahydro-2,6-methanobenzo[d]azocin-11-yl)benzonitrile] came in with an inhibition constant (Ki) on κ opioid receptor (bound in μM) above 20 µM. Also, the EC50 on μ-opioid receptor [1] is above 20 µM.
`COc1ccc2c(c1)[C@@]1(C)CCN(C)C(C2)[C@@H]1c1cccc(C(=O)O)c1` [Compound 38, 3-((6S,11R)-8-methoxy-3,6-dimethyl-1,2,3,4,5,6-hexahydro-2,6-methanobenzo[d]azocin-11-yl)benzoic acid] had a Ki at κ opioid receptor of 17.4 ± 5.98 µM. The molecule also had an EC50 on μ-opioid receptor [1] above 20 µM.
In the case of `CN1CC[C@]2(C)c3cc(O)ccc3CC1[C@@H]2COc1cccc(C(=O)O)c1` [Compound 40, 3-(((6S,11R)-8-hydroxy-3,6-dimethyl-1,2,3,4,5,6-hexahydro-2,6-methanobenzo[d]azocin-11-yl)methoxy)benzoic acid], the Ki at κ opioid receptor worked out at 3.12 ± 0.483 µM. On μ-opioid receptor [1], the EC50 was 3.07 ± 0.469 µM and the maximum response (Emax) turned out to be 25.7 ± 3.76%.
On to `CN1CC[C@]2(C)c3cc(O)ccc3C[C@@H]1[C@H]2COc1cccc(C(=O)O)c1` [Compound 41, 3-(((2R,6S,11S)-8-hydroxy-3,6-dimethyl-1,2,3,4,5,6-hexahydro-2,6-methanobenzo[d]azocin-11-yl)methoxy)benzoic acid], for which the Ki on κ opioid receptor was determined as 1.88 ± 0.28 µM. Moreover, on μ-opioid receptor [1], the EC50 was determined as 1.22 ± 0.235 µM and the Emax amounted to 46 ± 3.79%.
`COc1ccc2c(c1)[C@@]1(C)CCN(C)C(C2)[C@@H]1c1cccc(-c2nnn[nH]2)c1` [Compound 42, (6S,11R)-11-(3-(1H-tetrazol-5-yl)phenyl)-8-methoxy-3,6-dimethyl-1,2,3,4,5,6-hexahydro-2,6-methanobenzo[d]azocine] yielded a Ki on κ opioid receptor (bound in μM) above 20 µM. For the same molecule, at μ-opioid receptor [1], the EC50 was above 20 µM.
Consider `CN1CC[C@]2(C)c3cc(O)ccc3C[C@@H]1[C@H]2N(C)C(=O)c1cccc(C(=O)O)c1` [Compound 47, 3-(((2R,6R,11S)-8-hydroxy-3,6-dimethyl-1,2,3,4,5,6-hexahydro-2,6-methanobenzo[d]azocin-11-yl)(methyl)carbamoyl)benzoic acid], for which the Ki at κ opioid receptor is 20 µM. On μ-opioid receptor [1], the EC50 is 8.89 ± 0.655 µM and the Emax was 58.7 ± 5.24%.
At κ opioid receptor (bound in μM), `CN1CC[C@]2(C)c3cc(O)ccc3C[C@@H]1[C@@H]2N(C)C(=O)c1cccc(C(=O)O)c1` [Compound 48, 3-(((2R,6R,11R)-8-hydroxy-3,6-dimethyl-1,2,3,4,5,6-hexahydro-2,6-methanobenzo[d]azocin-11-yl)(methyl)carbamoyl)benzoic acid] registered a Ki above 20 µM. On μ-opioid receptor [1], it took 5.19 ± 0.549 µM to reach a half-maximal effect (EC50) and the Emax came out at 26 ± 4.16%.
In the same order, the values of `CN1CC[C@]2(C)c3cc(O)ccc3CC1[C@@H]2C(=O)Nc1ccc(C(=O)O)cc1` [Compound 52, 4-((6S,11R)-8-hydroxy-3,6-dimethyl-1,2,3,4,5,6-hexahydro-2,6-methanobenzo[d]azocine-11-carboxamido)benzoic acid] are above 20 µM, 1.03 ± 0.0731 µM and 72.3 ± 3.48%.
Molecule `CN1CC[C@]2(C)c3cc(O)ccc3CC1[C@@H]2COc1cc(C(N)=O)ccn1` [Compound 53, 2-(((6S,11R)-8-hydroxy-3,6-dimethyl-1,2,3,4,5,6-hexahydro-2,6-methanobenzo[d]azocin-11-yl)methoxy)isonicotinamide] came in with a Ki on κ opioid receptor of 0.701 ± 0.058 µM. On μ-opioid receptor [1], the EC50 is 1.11 ± 0.21 µM and the Emax came to 82.7 ± 1.2%.
`CN1CC[C@]2(C)c3cc(O)ccc3CC1[C@@H]2CC(=O)N1CCC[C@H]1C(=O)O` [Compound 55, (2S)-1-(2-((6S,11R)-8-hydroxy-3,6-dimethyl-1,2,3,4,5,6-hexahydro-2,6-methanobenzo[d]azocin-11-yl)acetyl)pyrrolidine-2-carboxylic acid] gave a Ki on κ opioid receptor (bound in μM) above 20 µM. Besides, on μ-opioid receptor [1], the response was half-maximal at 5.91 ± 0.422 µM (EC50) and the Emax was 71 ± 8.08%.
In the same order, the values of `CN1CC[C@]2(C)c3cc(O)ccc3C[C@@H]1[C@@H]2N(C)C(=O)c1ccc(C(=O)O)cc1` [Compound 59, 4-(((2R,6R,11R)-8-hydroxy-3,6-dimethyl-1,2,3,4,5,6-hexahydro-2,6-methanobenzo[d]azocin-11-yl)(methyl)carbamoyl)benzoic acid] are above 20 µM, 3.44 ± 0.183 µM and 76.3 ± 10.2%.
On κ opioid receptor, `CN1CC[C@]2(C)c3cc(O)ccc3C[C@@H]1[C@H]2N(C)C(=O)Nc1ccc(C#N)cc1` [Compound 79, 3-(4-cyanophenyl)-1-((2R,6R,11S)-8-hydroxy-3,6-dimethyl-1,2,3,4,5,6-hexahydro-2,6-methanobenzo[d]azocin-11-yl)-1-methylurea] had a Ki of 3.14 ± 0.805 µM. Further, at μ-opioid receptor [2], the EC50 amounted to 2.2 ± 0.668 µM and the Emax is 49 ± 3.46%.
On to `COc1ccc2c(c1)[C@@]1(C)CCN(CC3CC3)C(C2)[C@H]1N(C)C(=O)Nc1ccc(C(N)=O)cc1` [Compound 82], for which the inhibition constant (Ki) at κ opioid receptor was 10.2 µM. Also, the EC50 on μ-opioid receptor [2] (bound in μM) is above 20 µM. The maximal response (Emax) at μ-opioid receptor [2] was determined as 31.7 ± 5.36%.
As to `COc1ccc2c(c1)[C@@]1(C)CCN(CC3CC3)[C@H](C2)[C@H]1N(C)C(=O)/C=C/c1ccoc1` [Compound 85, (E)-N-((2R,6R,11S)-3-(cyclopropylmethyl)-8-methoxy-6-methyl-1,2,3,4,5,6-hexahydro-2,6-methanobenzo[d]azocin-11-yl)-3-(furan-3-yl)-N-methylacrylamide], the Ki at κ opioid receptor is 0.701 ± 0.0941 µM. Also, at μ-opioid receptor [2], the EC50 was found to be 3.24 ± 0.77 µM and the Emax stood at 19.3 ± 2.33%.
Take `COc1ccc2c(c1)[C@@]1(C)CCN(CC3CC3)[C@H](C2)[C@H]1N(C)C(=O)/C=C\c1ccoc1` [Compound 86, (Z)—N-((2R,6R,11S)-3-(cyclopropylmethyl)-8-methoxy-6-methyl-1,2,3,4,5,6-hexahydro-2,6-methanobenzo[d]azocin-11-yl)-3-(furan-3-yl)-N-methylacrylamide]: at κ opioid receptor, the Ki came out at 0.979 ± 0.146 µM. On μ-opioid receptor [2], the EC50 was 2.15 ± 0.21 µM and the Emax came to 14.7 ± 0.88%.
